Consider 1 compound from patent US20230416258A1, “BENZ[…], AND PREPARATION METHOD THEREFOR AND USE THEREOF” (CHINA PHARMACEUTICAL UNIVERSITY, priority 2020, published 2023).

By EC50 is commonly meant the concentration at which the effect is half-maximal. By IC50 is commonly meant the concentration that gives 50% inhibition.

Series [1] has as its system SD rats. In words: Test for drug-induced disappearance of righting reflex in rats. In kind it is in vivo. The following applies: single rapid bolus via tail vein. In a few lines:
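Male SD rats (200-280 g) were randomly grouped and given a single rapid bolus dose via the tail vein. Latency to loss of righting reflex and its duration were recorded.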

The next series concerns KM mice. Put plainly: Test for drug-induced disappearance of righting reflex in mice. In kind it is in vivo. The following applies: 30 mg/kg, single rapid bolus via tail vein. In a few lines:
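Latency to, and duration of, righting reflex loss were recorded after one fast tail-vein bolus. Animals: randomized female KM mice weighing 18–25 g.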

In series [2] the test system is GABA-activated Cl− current (GABAA receptor) in HEK 293T cells. Put plainly: Effect of drugs on GABA-activated current in cells by cell patch clamp. Format: cell-based. Conditions: −60 mV. In a few lines: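 Whole-cell patch clamp of HEK 293T cells held at −60 mV; compound applied together with 2 μM GABA in extracellular buffer (140 mM NaCl, HEPES, pH 7.4). Enhancement of GABA-evoked Cl− current recorded in the same cell, reported as maximal enhancement (Emax) and corresponding concentration.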

Another series has as its system hCMEC/D3 cells. In words: Rate of drug passing through in vitro blood-brain barrier (Transwell). The following applies: hCMEC/D3 monolayer, compound 0.1 mg/mL. In kind it is in vitro ADME. The method in brief:
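Confluent hCMEC/D3 monolayers grown 10 days on Transwell inserts (5.0 μm pores). Compound at 0.1 mg/mL added to the lower chamber; upper-chamber concentration measured after 5 min, with permeability expressed as upper/lower concentration ×100%.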

Series [3] has as its system SD rats. Put plainly: Induction of anesthesia in rats by continuous infusion of drug for 20 min. In kind it is in vivo. Conditions: initial dose 20 mg/kg bolus, maintenance dose 0.2 (mg/kg)/min for 20 min, after infusion completed. How it is done:
SD rats (male, 200-280 g) were randomly grouped and subjected to administration of an initial dose by rapid bolus via the tail vein, followed by a continuous infusion with a maintenance dose for 20 min.
After the infusion was completed, the duration of the righting reflex and the time from wake-up to recovery in rats were recorded.

Series [4] concerns the target voltage-gated potassium channel hERG (Homo sapiens (Human), UniProt Q12809). In words: Predictor hERG fluorescence polarization assay. In kind it is binding. Conditions: hERG channel, fluorescence polarization, 8 concentrations; read-out: IC50. How it is done:
In this experiment, IC50 was calculated by detecting the effect of compounds at 8 concentrations on the […]. The procedures were performed exactly as for Predictor™ hERG fluorescence polarization assay kit. Before measuring fluorescence polarization, the assay plate was covered to protect the reagents from light and evaporation, and after incubation at room temperature for 2-4 h, the sample plate was centrifuged to read the fluorescence polarization value, with the excitation light at 540 nm and the emission light at 573 nm.

The nature of series [5]: In vitro plasma half-life of drug. In kind it is in vitro ADME, SD rats. The following applies: SD rat plasma, 37° C.

Chain of voltage-gated potassium channel hERG (Q12809 whole entry, looked up): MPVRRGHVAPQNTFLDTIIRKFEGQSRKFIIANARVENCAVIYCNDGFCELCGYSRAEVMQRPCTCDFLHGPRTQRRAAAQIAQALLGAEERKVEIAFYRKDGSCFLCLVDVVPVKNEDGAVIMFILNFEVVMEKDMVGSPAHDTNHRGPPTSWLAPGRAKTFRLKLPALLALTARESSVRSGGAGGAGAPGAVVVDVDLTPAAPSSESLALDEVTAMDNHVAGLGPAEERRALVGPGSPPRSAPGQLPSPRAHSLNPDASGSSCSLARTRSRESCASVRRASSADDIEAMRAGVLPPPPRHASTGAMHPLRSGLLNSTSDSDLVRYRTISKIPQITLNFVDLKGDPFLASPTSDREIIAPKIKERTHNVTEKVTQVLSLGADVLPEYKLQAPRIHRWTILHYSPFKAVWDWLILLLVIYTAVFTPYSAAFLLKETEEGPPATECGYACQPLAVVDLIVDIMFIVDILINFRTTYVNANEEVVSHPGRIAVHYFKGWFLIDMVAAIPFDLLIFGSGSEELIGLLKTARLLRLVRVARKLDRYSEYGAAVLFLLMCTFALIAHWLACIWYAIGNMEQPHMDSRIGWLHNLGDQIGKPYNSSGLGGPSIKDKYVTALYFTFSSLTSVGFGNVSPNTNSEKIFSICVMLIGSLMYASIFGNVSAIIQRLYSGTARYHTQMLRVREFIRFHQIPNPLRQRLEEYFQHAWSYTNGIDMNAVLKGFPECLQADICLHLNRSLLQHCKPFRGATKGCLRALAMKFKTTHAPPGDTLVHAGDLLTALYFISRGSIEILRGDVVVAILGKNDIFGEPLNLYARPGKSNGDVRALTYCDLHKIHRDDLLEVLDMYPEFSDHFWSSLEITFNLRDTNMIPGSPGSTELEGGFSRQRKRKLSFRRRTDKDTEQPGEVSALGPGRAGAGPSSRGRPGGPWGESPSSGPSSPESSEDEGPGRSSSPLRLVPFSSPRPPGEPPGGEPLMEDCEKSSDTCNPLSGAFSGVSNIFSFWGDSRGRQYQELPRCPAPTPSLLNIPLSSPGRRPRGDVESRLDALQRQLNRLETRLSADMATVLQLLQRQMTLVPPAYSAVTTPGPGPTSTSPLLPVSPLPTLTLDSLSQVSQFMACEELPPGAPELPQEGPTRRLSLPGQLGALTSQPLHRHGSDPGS

For `COC(=O)CC[C@H]1N=C(c2ccccc2Cl)c2cc(Cl)ccc2-n2c(SCCN3CCC(O)CC3)nnc21` [Compound 135, methyl (S)-3-(8-chloro-6-(2-chlorophenyl)-1-(2-((4-hydroxypiperidin-1-yl)ethyl)thio)-4H-benzo[f][1,2,4]triazolo[4,3-a][1,4]diazepin-4-yl)propionate], in the series on SD rats [1], the Duration is reported as 16.64 min and the Latency was 0.14 min. Also, in the series with KM mice, the Duration was determined as 10.64 min and the Latency is 0.22 min. For the same compound, in series [2] (2 μM GABA, read-out: Positive enhancement EC50 (μM) for 2 μM GABA-induced current), the EC50 stood at 0.75 µM. Besides, the “Enhancement percentage Emax for 2 μM GABA current (within 3-30 μM)” value in series [2] (corresponding concentration 20 μM) is given as 263% (20 μM). Besides, the “In vitro blood-brain barrier, compound permeability at 5 min” value in the series with hCMEC/D3 cells was 80.2%. In addition, in the series with SD rats [3], the Duration of anesthesia came out at 7.24 min and the “Time from wake-up to recovery” value worked out at 13.6 min. Also, the IC50 in series [4] was 31.9 µM. Also, in series [5], the “In vitro plasma half-life” value is 0.33 min.
